These results are taken from publication PMC9785231, “Synthesis and Pharmacological Evaluation of Enantiopure N-Substituted Ortho-c Oxide-Bridged 5-Phenylmorphans” (Molecules, 2022).

Where two headings read alike, the source gives them in different places.

Broadly, the Ki is a measure of affinity in units of concentration, obtained from inhibition or displacement. Broadly, the inhibition is how much of the control response was suppressed. One may read the EC50 as the concentration at which the effect is half-maximal. A higher EC50 goes with weaker potency. What is called IC50 is the concentration that inhibits the measured activity by half. The CLint scaled is the rate of metabolic loss divided by the concentration. Low readings indicate greater metabolic stability, high ones faster metabolism. The term half-life denotes how long it takes for the measured level to halve. As a reminder, the microsomal CLint is the rate of metabolic loss divided by the concentration. A higher microsomal CLint goes with rapid turnover.

In one data set the target is mu-opioid receptor (MOR). The conditions noted are these: cited from earlier work.
In data set [1] the test system is cloned human mu-opioid receptor. The following applies: [35S]GTPγS functional assay; cited from earlier work. (GTPγS is a poorly hydrolysed GTP analogue; its binding reports G protein activation.)
Another data set addresses T1, CYP1A2 (Homo sapiens, UniProt P05177).
T1 sequence (P05177 1-516): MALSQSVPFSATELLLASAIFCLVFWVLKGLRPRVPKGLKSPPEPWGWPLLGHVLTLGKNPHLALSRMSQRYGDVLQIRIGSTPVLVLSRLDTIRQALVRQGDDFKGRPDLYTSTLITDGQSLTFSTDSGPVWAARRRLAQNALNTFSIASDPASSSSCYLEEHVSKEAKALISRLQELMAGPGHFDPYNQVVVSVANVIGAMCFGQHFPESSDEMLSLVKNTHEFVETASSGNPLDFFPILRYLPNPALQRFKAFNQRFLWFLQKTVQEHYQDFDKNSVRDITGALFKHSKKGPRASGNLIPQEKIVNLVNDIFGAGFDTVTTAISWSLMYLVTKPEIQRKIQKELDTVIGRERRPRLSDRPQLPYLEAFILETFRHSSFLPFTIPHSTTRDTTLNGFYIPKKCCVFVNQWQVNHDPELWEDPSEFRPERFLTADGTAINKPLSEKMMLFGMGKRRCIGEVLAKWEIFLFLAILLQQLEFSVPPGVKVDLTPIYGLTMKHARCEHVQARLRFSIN
Put plainly: P450 inhibition, human liver microsomal CYP1A2. The following applies: microsomes.

Another data set concerns the target T2, μ-opioid receptor (MOR) (Rattus norvegicus, UniProt P33535).
T2 construct: All assay tubes contained 100 μL homogenate suspension; from tissue; host or cells: whole rat brain excluding cerebellum, membrane homogenate
Kind of data set: Opioid receptor binding, MOR ([3H]DAMGO), rat brain homogenate. The following applies: for Ki: [3H]DAMGO, whole rat brains excluding cerebellum, read-out: MOR Binding (Ki ± SEM).

Data set [2] has as its target T3, human κ-opioid receptor (OPRK1) (Homo sapiens, UniProt P41145). Put plainly: Forskolin-induced cAMP accumulation assay, KOR agonist mode. In general terms: Changes in cAMP serve as a functional read-out for many G protein-coupled receptors.
In a further data set the target is T4, κ-opioid receptor (KOR) (Rattus norvegicus, UniProt P34975).
T4 construct: All assay tubes contained 100 μL homogenate suspension; from tissue; host or cells: whole rat brain excluding cerebellum, membrane homogenate
Put plainly: Opioid receptor binding, KOR ([3H]U69,593), rat brain homogenate. The conditions noted are these: for Ki: [3H]U69,593, whole rat brains excluding cerebellum, read-out: KOR Binding (Ki ± SEM); for fold lower affinity at KOR than at MOR: from Ki of Table 1.

Data set [3] deals with T5, human δ-opioid receptor (OPRD1) (Homo sapiens, UniProt P41143). Kind of data set: cell-based.
In a further data set the target is CYP2C9 (Homo sapiens, UniProt P11712). Kind of data set: P450 inhibition, human liver microsomal CYP2C9. The conditions noted are these: microsomes. A general note: Microsomes from liver hold many membrane-bound enzymes, among them those of drug oxidation.
The next data set relates to CYP3A. Put plainly: P450 inhibition, human liver microsomal CYP3A. The conditions noted are these: human liver microsomes, read-out: 3A %Inhibition. The class given is in vitro ADME.
Data set [4] concerns the target T5, human δ-opioid receptor (OPRD1). Put plainly: Forskolin-induced cAMP accumulation assay, DOR agonist mode.
Data set [5] shares this target. The conditions noted are these: versus EC50 of SNC80; normalized to naltrexone.
For a further data set, the target named is T6, CYP2D6 (Homo sapiens, UniProt P10635).
T6 construct: selected human liver microsomal cytochrome P450 isozymes (CYP1A2, CYP2C9, CYP2C19, CYP2D6, and CYP3A); from tissue; host or cells: human liver microsomes
Put plainly: P450 inhibition, human liver microsomal CYP2D6. The format is in vitro ADME. The following applies: for inhibition at 10 µM: human, human liver microsomes, read-out: 2D6 %Inhibition.

The next data set has as its target CYP2C19 (Homo sapiens, UniProt P33261). Kind of data set: in vitro. The following applies: microsomes.
The nature of data set [6]: in vitro. The conditions noted are these: mouse, microsomes.
Data set [7] is described as follows: Microsomal metabolic stability, mouse liver microsomes. The conditions noted are these: for Remaining (NCF = 60 min): MLM 0.5, no co-factor (no NADPH); for Remaining (T = 60 min): MLM 0.5, with NADPH.
The target in a further data set is T7, δ-opioid receptor (DOR) (Rattus norvegicus, UniProt P33533).
T7 construct: All assay tubes contained 100 μL homogenate suspension; from tissue; host or cells: whole rat brain excluding cerebellum, membrane homogenate
Kind of data set: Opioid receptor binding, DOR ([3H]DADLE), rat brain homogenate. The conditions noted are these: for Ki: [3H]DADLE, whole rat brains excluding cerebellum, read-out: DOR Binding (Ki ± SEM); for fold lower affinity at DOR than at MOR: from Ki of Table 1.

For data set [8], the target named is T3, human κ-opioid receptor (OPRK1). Kind of data set: Forskolin-induced cAMP accumulation assay, KOR antagonist mode. The conditions noted are these: for KOR Antagonist %Imax ± SEM: versus EC90 of U50488H, normalized to nor-BNI.
Data set [9] can be described thus: in vitro. The conditions noted are these: human, microsomes.
Data set [10] in a line: Microsomal metabolic stability, human liver microsomes.
The mark [11] stands for this setting: N-substituted 5-phenylmorphans, read-out: affinity at MOR Ki.
Where [12] appears, read: forskolin-induced cAMP accumulation assay.
Where [13] appears, read: HLM 0.5, no co-factor (no NADPH).
[14] abbreviates: 100 nM concentration, displacement of radioligand.

T5 sequence (P41143 whole entry): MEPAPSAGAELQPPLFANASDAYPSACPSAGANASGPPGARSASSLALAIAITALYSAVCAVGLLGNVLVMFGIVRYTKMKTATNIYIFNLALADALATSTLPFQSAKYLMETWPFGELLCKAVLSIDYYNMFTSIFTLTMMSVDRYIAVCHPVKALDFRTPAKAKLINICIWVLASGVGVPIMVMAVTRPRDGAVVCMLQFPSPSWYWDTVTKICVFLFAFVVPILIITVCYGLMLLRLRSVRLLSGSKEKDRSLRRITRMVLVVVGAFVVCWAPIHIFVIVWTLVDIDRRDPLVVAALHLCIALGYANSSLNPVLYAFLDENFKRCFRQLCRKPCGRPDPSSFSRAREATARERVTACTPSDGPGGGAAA
T6 sequence (P10635 whole entry): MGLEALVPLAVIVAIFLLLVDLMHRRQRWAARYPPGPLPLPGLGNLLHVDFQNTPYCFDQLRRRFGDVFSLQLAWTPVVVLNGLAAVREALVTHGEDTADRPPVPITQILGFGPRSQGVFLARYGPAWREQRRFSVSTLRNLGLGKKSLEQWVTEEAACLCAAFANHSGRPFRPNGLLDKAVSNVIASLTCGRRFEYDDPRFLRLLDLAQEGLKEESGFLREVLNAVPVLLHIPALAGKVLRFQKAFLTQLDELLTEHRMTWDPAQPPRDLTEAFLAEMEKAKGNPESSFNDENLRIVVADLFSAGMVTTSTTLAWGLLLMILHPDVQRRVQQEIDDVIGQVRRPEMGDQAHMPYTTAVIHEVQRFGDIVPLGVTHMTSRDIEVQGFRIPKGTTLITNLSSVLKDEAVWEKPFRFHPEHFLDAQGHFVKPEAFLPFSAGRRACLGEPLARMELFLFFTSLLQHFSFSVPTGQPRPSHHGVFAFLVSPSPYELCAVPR
T7 sequence (P33533 whole entry): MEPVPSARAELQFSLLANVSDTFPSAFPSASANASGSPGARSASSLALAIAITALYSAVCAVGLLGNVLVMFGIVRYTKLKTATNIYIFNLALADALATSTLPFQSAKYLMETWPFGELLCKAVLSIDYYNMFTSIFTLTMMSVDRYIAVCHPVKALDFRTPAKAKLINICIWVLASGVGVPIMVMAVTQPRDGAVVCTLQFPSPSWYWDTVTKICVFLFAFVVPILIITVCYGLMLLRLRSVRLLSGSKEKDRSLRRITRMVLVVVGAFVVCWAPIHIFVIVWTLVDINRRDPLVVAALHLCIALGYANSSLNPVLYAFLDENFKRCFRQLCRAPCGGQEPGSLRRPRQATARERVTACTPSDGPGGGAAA
T3 sequence (P41145 whole entry): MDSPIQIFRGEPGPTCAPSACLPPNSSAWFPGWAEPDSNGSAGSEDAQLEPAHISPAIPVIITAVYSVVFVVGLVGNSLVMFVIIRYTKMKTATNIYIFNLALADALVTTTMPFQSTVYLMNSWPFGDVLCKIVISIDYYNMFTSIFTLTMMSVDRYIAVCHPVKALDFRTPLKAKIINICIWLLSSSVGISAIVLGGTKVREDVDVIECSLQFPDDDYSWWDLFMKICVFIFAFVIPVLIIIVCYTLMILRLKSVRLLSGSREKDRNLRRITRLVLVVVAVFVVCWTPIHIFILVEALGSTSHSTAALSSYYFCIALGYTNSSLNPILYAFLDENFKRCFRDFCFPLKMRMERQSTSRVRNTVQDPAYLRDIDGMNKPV
T2 sequence (P33535 whole entry): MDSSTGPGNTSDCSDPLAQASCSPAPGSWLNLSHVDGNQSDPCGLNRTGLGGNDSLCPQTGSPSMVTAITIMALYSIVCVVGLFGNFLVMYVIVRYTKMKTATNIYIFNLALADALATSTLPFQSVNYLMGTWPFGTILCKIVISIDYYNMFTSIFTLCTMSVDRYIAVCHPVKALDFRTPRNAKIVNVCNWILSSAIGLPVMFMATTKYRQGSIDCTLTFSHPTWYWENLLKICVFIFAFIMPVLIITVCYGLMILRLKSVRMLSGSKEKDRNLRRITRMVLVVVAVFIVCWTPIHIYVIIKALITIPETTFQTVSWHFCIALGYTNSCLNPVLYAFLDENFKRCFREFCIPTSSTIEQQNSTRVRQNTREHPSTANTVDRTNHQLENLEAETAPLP
Chain of CYP2C9 (P11712 whole entry): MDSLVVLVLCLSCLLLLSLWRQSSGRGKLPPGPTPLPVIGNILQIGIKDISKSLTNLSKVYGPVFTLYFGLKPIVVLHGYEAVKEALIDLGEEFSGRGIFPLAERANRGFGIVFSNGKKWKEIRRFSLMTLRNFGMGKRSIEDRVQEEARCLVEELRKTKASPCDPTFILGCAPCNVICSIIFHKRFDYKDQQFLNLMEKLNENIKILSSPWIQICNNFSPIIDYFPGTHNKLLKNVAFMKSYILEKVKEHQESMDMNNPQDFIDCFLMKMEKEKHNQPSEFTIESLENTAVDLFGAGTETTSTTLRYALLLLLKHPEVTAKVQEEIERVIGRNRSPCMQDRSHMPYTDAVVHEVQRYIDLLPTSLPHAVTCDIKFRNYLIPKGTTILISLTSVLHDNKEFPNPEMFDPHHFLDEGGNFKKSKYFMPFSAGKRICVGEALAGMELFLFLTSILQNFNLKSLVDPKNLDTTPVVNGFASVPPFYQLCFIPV
T4 sequence (P34975 whole entry): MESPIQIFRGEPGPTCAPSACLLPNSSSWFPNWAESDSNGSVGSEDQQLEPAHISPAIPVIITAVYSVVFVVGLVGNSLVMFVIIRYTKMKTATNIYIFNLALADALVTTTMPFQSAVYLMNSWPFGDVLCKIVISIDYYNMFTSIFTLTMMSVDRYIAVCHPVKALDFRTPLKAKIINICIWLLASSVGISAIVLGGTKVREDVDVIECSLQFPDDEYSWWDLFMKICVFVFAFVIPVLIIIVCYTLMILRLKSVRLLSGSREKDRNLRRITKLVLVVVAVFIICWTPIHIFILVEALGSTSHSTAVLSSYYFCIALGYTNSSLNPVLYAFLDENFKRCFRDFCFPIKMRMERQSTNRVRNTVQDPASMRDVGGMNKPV
Chain of CYP2C19 (P33261 whole entry): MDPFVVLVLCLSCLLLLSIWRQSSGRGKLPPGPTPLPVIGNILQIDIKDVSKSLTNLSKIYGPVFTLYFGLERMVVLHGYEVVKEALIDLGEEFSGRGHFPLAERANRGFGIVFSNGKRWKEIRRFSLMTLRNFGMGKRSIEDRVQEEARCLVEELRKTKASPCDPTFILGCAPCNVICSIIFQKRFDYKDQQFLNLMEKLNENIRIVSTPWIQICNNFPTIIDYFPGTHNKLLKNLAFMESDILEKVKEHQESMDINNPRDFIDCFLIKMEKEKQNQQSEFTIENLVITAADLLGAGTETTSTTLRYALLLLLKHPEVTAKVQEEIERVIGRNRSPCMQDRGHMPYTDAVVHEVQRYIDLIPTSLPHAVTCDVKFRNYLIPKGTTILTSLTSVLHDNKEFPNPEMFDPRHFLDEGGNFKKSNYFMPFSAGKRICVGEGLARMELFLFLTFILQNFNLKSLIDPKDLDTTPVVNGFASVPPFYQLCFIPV

`Oc1cccc2c1OC1CN(CCc3ccccc3)C3CCCC21C3` (racemic) [(±)-1]: the inhibitory constant (Ki) on mu-opioid receptor (MOR) (racemate, read-out: mu-opioid receptor affinity Ki) is 1.1 nM.

In the case of `Oc1cccc(C23CCCC(C2)N(CC2CC2c2ccccc2)CC3)c1` (single isomer, unassigned; (+)) [(+)-2], the “mu-opioid antagonist activity Ke” value in data set [1] is reported as 0.17 nM. Further, the Ki at mu-opioid receptor (MOR) (setting [11]) is 3 nM.

Regarding `Oc1cccc(C23CCCC(C2)N(CC2CC2c2ccccc2)CC3)c1` (single isomer, unassigned; (-)) [(-)-3], in [1], the “mu-opioid antagonist activity Ke” value is listed as 0.3 nM. The inhibition constant (Ki) at mu-opioid receptor (MOR) (setting [11]) was 4 nM.

Take `Oc1cccc2c1O[C@H]1CN(C[C@H]3C[C@@H]3c3ccccc3)[C@H]3CCC[C@@]21C3` [(+)-17, (3S,6aR,11aR)-2-(((1S,2S)-2-Phenylcyclopropyl)methyl)-1,3,4,5,6,11a-hexahydro-2H-3,6a-methanobenzofuro[2,3-c]azocin-10-ol]: the inhibition at 10 µM against CYP1A2 is 6.8%; on CYP2C9 it was 36.6%; in the data set on CYP3A, 24.7%; at CYP2D6, greater than 50%; at CYP2C19 it was 46.6%. Further, the Ki at μ-opioid receptor (MOR) came out at 11.9 ± 1.6 nM; on κ-opioid receptor (KOR), 100 ± 10 nM; at δ-opioid receptor (DOR), 49.4 ± 5.1 nM. For the same compound, the 50% effective concentration (EC50) in data set [2] and in [4] was greater than 10 µM each time. In data set [2] (setting [12]), the “functional agonist activity at KOR” value is listed as “did not have functional agonist activity”. Also, on κ-opioid receptor (KOR), the “fold lower affinity at KOR than at MOR” value is “about 10 fold”. Further, the IC50 is 487 ± 157 nM in data set [3] and 206 ± 63.2 nM in [8]. In data set [4] (setting [12]), the “functional agonist activity at DOR” value is recorded as “did not have functional agonist activity”. Further, the “DOR Antagonist %Imax ± SEM” value in data set [5] is listed as 160.9 ± 4.0%. Besides, on CYP2D6 (10 µM), the “2D6 %Inhibition” value is 66.8%. The values for the CLint scaled in “in vitro [6]” and in the data set “in vitro [9]” were 801 mL/min/kg and 62 mL/min/kg, respectively. In addition, the half-life in the data set “in vitro [6]” came to 6.9 min; in the data set “in vitro [9]”, 20.1 min. The figures for the intrinsic metabolic clearance (microsomal CLint) in “in vitro [6]” and in “in vitro [9]” were 202 µL/min/mg and 68.9 µL/min/mg, respectively. In addition, the entries for the “Remaining (NCF = 60 min)” value in [7] and in data set [10] (setting [13]) were 94.4% and 98.5%, respectively. For the same compound, the “Remaining (T = 60 min)” value in data set [7] was determined as 0.2%; in [10] (HLM 0.5, with NADPH) it was 13.0%. Moreover, the “fold lower affinity at DOR than at MOR” value on δ-opioid receptor (DOR) is “approximately 4 fold”. In addition, the “KOR Antagonist %Imax ± SEM” value in data set [8] is listed as 106.1 ± 5.5%.

`Oc1cccc2c1O[C@H]1CN(CCc3ccccc3)[C@H]3CCC[C@@]21C3` [(-)-1, (3S,6aR,11aR)-2-Phenethyl-1,3,4,5,6,11a-hexahydro-2H-3,6a-methano-benzofuro[2,3-c]azocin-10-ol]: the Ki at μ-opioid receptor (MOR) is 1.11 ± 0.15 nM; at κ-opioid receptor (KOR), 13 ± 1.2 nM; at δ-opioid receptor (DOR) it was 34.8 ± 4.4 nM. For the same compound, the EC50 in [2] and in data set [4] was greater than 10 µM throughout. Moreover, the “fold lower affinity at KOR than at MOR” value at κ-opioid receptor (KOR) is “about 10 fold”. The 50% inhibitory concentration (IC50) in [3] came out at 409 ± 138 nM; in data set [8], 102 ± 65.8 nM. In [5], the “DOR Antagonist %Imax ± SEM” value is reported as 86.5 ± 6.4%. Further, at δ-opioid receptor (DOR), the “fold lower affinity at DOR than at MOR” value is “approximately 30 fold”. Also, the “KOR Antagonist %Imax ± SEM” value in data set [8] was 109.3 ± 8.1%.

In the case of `Oc1cccc2c1O[C@@H]1CN(C[C@@H]3C[C@@H]3c3ccccc3)[C@@H]3CCC[C@]21C3` [(-)-19, (3R,6aS,11aS)-2-(((1R,2S)-2-phenylcyclopropyl)methyl)-1,3,4,5,6,11a-hexahydro-2H-3,6a-methanobenzofuro[2,3-c]azocin-10-ol], the “MOR Binding, activity in exploratory binding assays” value at μ-opioid receptor (MOR) (setting [14]) was “NT (NT = not tested—inactive (<50% activity at 100 nM concentration in exploratory binding assays (displaced less than half of radioligand))”. The “KOR Binding, activity in exploratory binding assays” value at κ-opioid receptor (KOR) (setting [14]) was “NT (NT = not tested—inactive (<50% activity at 100 nM concentration in exploratory binding assays (displaced less than half of radioligand))”. Besides, the “DOR Binding, activity in exploratory binding assays” value on δ-opioid receptor (DOR) (setting [14]) is “NT (NT = not tested—inactive (<50% activity at 100 nM concentration in exploratory binding assays (displaced less than half of radioligand))”.

Consider `O=C(O)Cc1ccccc1Nc1c(Cl)cccc1Cl` [Diclofenac], for which, in “in vitro [6]”, the intrinsic metabolic clearance (microsomal CLint) worked out at 35.4 µL/min/mg. Also, the “Remaining (NCF = 60 min)” value in data set [7] turned out to be 99.4%; in [10] (setting [13]) it was 95.1%. For the same compound, the “Remaining (T = 60 min)” value came to 33.5% in [7] and 0.4% in [10] (HLM 0.5, with NADPH). In addition, in the data set “in vitro [9]”, the CLint scaled amounted to 162 mL/min/kg.

On to `CC(=O)N1CCN(c2ccc(OCC3COC(Cn4ccnc4)(c4ccc(Cl)cc4Cl)O3)cc2)CC1` (stereo not drawn) [Ketoconazole, reference compound], for which the inhibition at 10 µM with CYP3A is 98.8%.

`O=C1CC[C@@]2(O)[C@H]3Cc4ccc(O)c5c4[C@@]2(CCN3CC2CC2)[C@H]1O5` [Naltrexone]: the inhibition at 10 µM on CYP2C9 and against CYP2C19 was 0% in each case. Moreover, the “Remaining (NCF = 60 min)” value in data set [7] amounted to 84.3%; in data set [10] (human, microsomes, 1 h) it was 99.8%. Moreover, the “Remaining (T = 60 min)” value in data set [7] is 48.1%; in data set [10] (human, microsomes, 1 h), 97.1%.

On to `C=C[C@H]1C[N@@]2CC[C@H]1C[C@@H]2[C@@H](O)c1ccnc2ccc(OC)cc12` [Quinidine, reference compound], for which, on CYP2D6, the inhibition at 10 µM turned out to be 94.2%.

As to `Nc1ccc(S(=O)(=O)Nc2ccnn2-c2ccccc2)cc1` [Sulfaphenazole], at 10 µM the inhibition on CYP2C9 was 85.2%.

Take `C[C@]12CC[C@H]3[C@@H](CCC4=CC(=O)CC[C@@]43C)[C@@H]1CC[C@@H]2O` [Testosterone]: the figures for the CLint scaled in “in vitro [6]” and in “in vitro [9]” were 1720 mL/min/kg and 96.4 mL/min/kg, respectively. Also, in the data set “in vitro [6]”, the half-life came out at 3.2 min. This compound also registered a microsomal CLint in “in vitro [6]” of 435 µL/min/mg. Further, the figures for the “Remaining (NCF = 60 min)” value in data set [7] and in data set [10] (setting [13]) were 97.1% and 86.7%, respectively. Besides, the “Remaining (T = 60 min)” value is given as 0.0% in data set [7] and 3.9% in [10] (HLM 0.5, with NADPH).

On to `O=c1cc(-c2ccccc2)oc2c1ccc1ccccc12` [α-Naphthoflavone, reference compound], for which at 10 µM the inhibition against CYP1A2 was 88.3%.
